Values of other authors as cited in patent US20100221327A1, “Nanoparticulate azelnidipine formulations” (Elan Pharma International Limited, priority 2005, published 2010).
Entries after “also recorded” stand apart in the source; their conditions may differ.

## CC1=C(C(=O)OC(C)C)C(c2cccc([N+](=O)[O-])c2)C(C(=O)OC2CN(C(c3ccccc3)c3ccccc3)C2)=C(N)N1 (racemic) [Azelnidipine, (±)-3-(1-Diphenylmethylazetidin-3-yl)-5-isopropyl 2-amino-1,4-dihydro-6-methyl-4-(3-nitrophenyl)-3,5-pyridinedicarboxylate]
  Solubility in water: only slightly soluble; also recorded: practically insoluble
